# According to US20070258972A1, “Combination of a Histone Deacetylase Inhibitor with a Death Receptor Ligand” (priority 2003, published 2007):
# Assays:
# Format in all cases: cell-based, human
# [1] = tested on: DR5 promoter associated with acetylated histones H3 and H4; assay: ChIP assay, DR5 promoter; details: 8 hours, Jurkat cells
# Protocol: ChIP analysis was performed by a slight modification of a previously described method. Cells are incubated overnight at a density of 0.25×10^8 cells/ ml at 37° C. with 5% CO2. […] Formaldehyde was then added to the cells to a final concentration of 1%, and the cells are gently shaken at room temperature for 10 minutes. Following this, the cells are pelleted, suspended in 1 mL of ice-cold PBS containing protease inhibitors (Complete, Boehringer Mannheim). Cells are again pelleted, re-suspended in 0.5 mL of SDS lysis buffer (1% SDS/1.0 mM EDTA/50 mM Tris.HCl, pH 8.1) and incubated on ice for 20 minutes. Lysates are sonicated with 15-second bursts. Debris was removed from samples by centrifugation for 20 minutes at 15,000×g at 4° C. An aliquot of the chromatin preparation (100 μL) was set aside and designated as Input Fraction. […] Immunoprecipitated DNA (both immunoprecipitation samples and Input) was recovered by phenol/chloroform extraction and ethanol precipitation and analyzed by PCR. […] The optimal reaction conditions for PCR are determined for each primer pair. […] The ratio between the immunoprecipitated DNA and Input DNA was calculated for each treatment and primer set. The fold increases after treatment with LAQ824 was calculated from the indicated ratio.
# DR5 [2] = assay: DR5 cell-membrane expression by flow cytometry, Jurkat cells
# [3] = tested on: SKW 6.4 and Jurkat leukemia cells; assay: Multi-probe RNase protection assay of mRNA levels
# Protocol: A RiboQuant Multi-Probe RNase Protection Assay System was used according to the manufacturer's instructions (BD/PharMingen, San Diego, Calif.). A probe set, hAPO-3d (FLICE, FAS, DR5, DR4 and TRAIL) was used for T7 RNA-polymerase directed synthesis of [α-32P] UTP-labeled antisense RNA probes. The probe set contains the DNA templates, including glyceraldehyde-3-phosphate dehydrogenase (GAPDH) used as internal control. The probes (1×10^6 cpm/reaction) are hybridized with 20 μg of RNA isolated from the SKW 6.4 and Jurkat leukemia cells, following treatment with 100 nM LAQ824 at different time points using the RNeasy Mini kit (Qiagen, Valencia, Calif.). After overnight hybridization, samples are digested with RNase to remove single-stranded (non-hybridized) RNA. The remaining probes are resolved on 5% de-naturing polyacrylamide gel and analyzed by autoradiography.
# DR5 [4] = assay: DR5 expression on the cell membrane by flow cytometry, primary AML sample
# Jurkat and SKW 6.4 cells = assay: Apoptosis assessment by annexin-V staining, Jurkat and SKW 6.4 cells; details: 10-200 nM, 24 hours; more in Jurkat than in SKW 6.4 cells
# Protocol: (§1) After drug treatments, cells are resuspended in 100 μL of the staining solution containing annexin-V fluorescein and propidium iodide in a HEPES buffer (Annexin-V-FLUOS Staining Kit, Boehringer-Mannheim, and Indianapolis, Ind.). Following incubation at room temperature for 15 minutes, annexin V positive cells are estimated by flow cytometry, as previously described.
# Primary AML cells = assay: Apoptosis of primary AML cells by annexin V staining and flow cytometry; details: for % of Apoptosis: LAQ824 100 nM and/or Apo-2L/TRAIL 100 ng/mL, 24 hours
# Source text: Jurkat T cell leukemia and SKW6.4 B lymphoblast cells are obtained from American Tissue Culture Collection (Manassas, Va.). HL-60/Bcl-2 cells with ectopic over-expression of Bcl-2 and the control HL-60/Neo cells are created and maintained in culture as previously described. Primary leukemia blasts from six patients with AML in relapse are harvested, as previously described, from the peripheral blood or bone marrow after informed consent, as a part of a protocol study sanctioned by the local Institutional Review Board. The purity of leukemia blasts in the samples prior to culture in LAQ824 and/or Apo-2L/TRAIL was at least 80% or more, as determined by morphologic evaluation after Wright staining.
# as §1
# [5] = 8 hours or 16 hours, densitometry, GAPDH loading control
smiles,measurement,setting,value
"O=C(/C=C/c1ccc(CN(CCO)CCc2c[nH]c3ccccc23)cc1)NO [LAQ824, N-hydroxy-3-[4-[[(2-hydroxyethyl)[2-(1H-indol-3-yl)ethyl]-amino]methyl]phenyl]-2E-2-propenamide]",increase of DR5 promoter associated with acetylated histones H3 and H4,[1]; first of 'respectively' (100 nM / H3),3.3 fold
same,increase of DR5 promoter associated with acetylated histones H3 and H4,[1]; second of 'respectively' (200 nM / H4),5.7 fold
same,cell-membrane expression of DR5,DR5 [2],induces
same,mRNA levels of Apo-2L/TRAIL and caspase-8 (FLICE),[3],only minimally affected
same,"mRNA expression of DR5, increase",[3]; [5],2.4 fold
same,"mRNA expression of FAS, increase",[3]; [5],1.5 fold
same,"DR4 mRNA levels, increase",[3]; only in SKW 6.4 cells,2.2 fold
same,DR5 expression on the cell membrane,"DR5 [4]; 100 nM LAQ824, baseline 17.5%",33.2 % of cells
same,DR5 expression on the cell membrane,"DR5 [4]; 250 nM LAQ824, baseline 17.5%",62.4 % of cells
same,"apoptosis, positive staining for annexin V",Jurkat and SKW 6.4 cells,induces apoptosis in a dose-dependent manner
same,% of Apoptosis,"Primary AML cells; Patient 1 primary AML cells, control 7.0",14.5%
same,% of Apoptosis,"Primary AML cells; Patient 2 primary AML cells, control 12.0",29.5%
same,% of Apoptosis,"Primary AML cells; Patient 3 primary AML cells, control 8.0",22.9%
same,% of Apoptosis,"Primary AML cells; Patient 4 primary AML cells, control 10.0",27.9%
same,% of Apoptosis,"Primary AML cells; Patient 5 primary AML cells, control 6.0",57.8%
same,% of Apoptosis,"Primary AML cells; Patient 6 primary AML cells, control 7.0",7.9%
same,apoptosis of primary AML blasts (in words),"Primary AML cells; six samples, relapsed AML, Apo-2L/TRAIL 100 ng/mL, LAQ824 100 nM",induces more apoptosis
